Laboratory results as given in patent publication US8206941B2, “Three part assay for kinase or phosphatase activity” (Hoffmann-La Roche Inc., priority 2005, dated 2012).
pEC50: −log10 of the molar value.

Target: T1, PDHK2 (recombinant pyruvate dehydrogenase kinase 2) (Homo sapiens, UniProt Q15119)
T1 construct: made in house
Assay: Fast-TR FRET kinase IMAP assay, ATP dependence of the kinase reaction
Format: biochemical
Conditions: 1 μM Alexa-peptide in the kinase reaction; concentration in the kinase reaction (50 times less in readout); FRET readout 730 (30) nm; FIG. 9; read-out: EC50 of ATP dose response curve
From the text: • Substrate peptide (YHGHSMSAPGVSTAC (SEQ ID NO: 1)) from Biosyntan labeled with Alexa Fluor 700 • Phosphorylated substrate peptide (YHGHS(H2PO4)MSAPGVSTAC (SEQ ID NO: 1)) from Biosyntan labeled with Alexa Fluor 700 and Ru(batho) 2bpy • Kinase enzyme: PDHK2 (recombinant pyruvate dehydrogenase kinase 2, expressed according to standard methods) • IMAP™ beads from Molecular Devices (IMAP™ Explorer Kit (IPP) Product # R8062) • Buffer: IMAP™ Binding Buffer 1:5 diluted with dest. H2O+0.05% BSA Instrumentation: • Zeiss plate::vision reader • Plate: Costar 384, UV-NBS • Excitation wavelength: 355 nm • Emission filter: 730 (30) nm, 615 (10) nm
1 μl of the PDHK2 enzyme was diluted in 11 μl kinase buffer (25 mM Hepes pH 7.4, 150 mM NaCl, 18.7 mM MgCl2, 0.4 mM NH4Ac, 0.025% Triton X-100, 1.87 mM DTT). […] For the readout the final substrate concentration was 20 nM (phosphorylated) Alexa-peptide and with the final ATP concentration of 2 μM the FRET signal should be easily detectable (FIG. 5). […]
Note that these were the concentrations in the kinase reaction, in the readout they were 50 times less. […] With higher ATP concentrations the signal decreased again due to free ATP in the readout mixture which bound to the IMAP™ beads and thus decreased the binding capacity of the IMAP™ beads. […]

SMILES: Nc1ncnc2c1ncn2[C@@H]1O[C@H](COP(=O)(O)OP(=O)(O)OP(=O)(O)O)[C@@H](O)[C@H]1O [ATP]
- pEC50: 5.44
